Test results taken from ChEMBL document CHEMBL1201861, “Genomics of Drug Sensitity in Cancer screening data, Wellcome Trust Sanger Institute”.
pIC50: −log10 of the molar value.

How the values were obtained:
Experiment in all cases: cells
Conditions in all cases: Homo sapiens
EW-24 = format: functional, cell-based;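 also: human EW-24 cancer cell line, growth inhibition read out via a cell viability assay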
Description: SANGER: Inhibition of human EW-24 cell growth in a cell viability assay.

LAMA-84 = format: functional, cell-based;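 also: growth inhibition of LAMA-84 cells, read out with a cell viability assay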
Description: SANGER: Inhibition of human LAMA-84 cell growth in a cell viability assay.

MS-1 = format: functional, cell-based
Description: SANGER: Inhibition of human MS-1 cell growth in a cell viability assay.

BB65-RCC = format: functional, cell-based;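 also: growth inhibition of the cell line, measured with a cell viability assay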
Description: SANGER: Inhibition of human BB65-RCC cell growth in a cell viability assay.

SBC-1 = format: functional, cell-based;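 also: cell viability assay measuring growth inhibition of the SBC-1 cell line, IC50 being the concentration that halves growth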
Description: SANGER: Inhibition of human SBC-1 cell growth in a cell viability assay.

C8166 = format: functional, cell-based;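 also: growth inhibition of human C8166 cells measured by a cell viability assay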
Description: SANGER: Inhibition of human C8166 cell growth in a cell viability assay.

NCI-H720 = format: functional, cell-based;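 also: growth inhibition of human NCI-H720 cells determined by a cell viability assay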
Description: SANGER: Inhibition of human NCI-H720 cell growth in a cell viability assay.

HCC2218 = format: functional, cell-based;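 also: cell viability assay read-out, with IC50 given as the concentration that inhibits growth of the cell line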
Description: SANGER: Inhibition of human HCC2218 cell growth in a cell viability assay.

A388 = format: functional, cell-based;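 also: growth inhibition of human A388 cells, read out with a cell viability assay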
Description: SANGER: Inhibition of human A388 cell growth in a cell viability assay.

D-502MG = format: functional, cell-based
Description: SANGER: Inhibition of human D-502MG cell growth in a cell viability assay.

A704 = format: functional, cell-based;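 also: growth inhibition of human A704 cells, read out with a cell viability assay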
Description: SANGER: Inhibition of human A704 cell growth in a cell viability assay.

GT3TKB = format: functional, cell-based;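 also: growth inhibition of the cell line, read out with a cell viability assay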
Description: SANGER: Inhibition of human GT3TKB cell growth in a cell viability assay.

KGN = format: functional, cell-based;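 also: growth inhibition of KGN cells, read out with a cell viability assay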
Description: SANGER: Inhibition of human KGN cell growth in a cell viability assay.

HEL = format: functional, cell-based;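 also: growth inhibition of HEL cells, read out with a cell viability assay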
Description: SANGER: Inhibition of human HEL cell growth in a cell viability assay.

ES4 = format: functional, cell-based;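 also: growth inhibition of human ES4 cells, read out by a cell viability assay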
Description: SANGER: Inhibition of human ES4 cell growth in a cell viability assay.

HOP-62 = format: functional, cell-based;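 also: cell growth inhibition determined with a viability assay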
Description: SANGER: Inhibition of human HOP-62 cell growth in a cell viability assay.

MZ7-mel = format: functional, cell-based;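 also: growth inhibition of human MZ7-mel cells, measured by a cell viability assay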
Description: SANGER: Inhibition of human MZ7-mel cell growth in a cell viability assay.

MC116 = format: functional, cell-based;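 also: growth inhibition of MC116 cells, read out with a cell viability assay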
Description: SANGER: Inhibition of human MC116 cell growth in a cell viability assay.

TK-10 = format: functional, cell-based;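 also: growth inhibition of TK-10 cells, read out in a cell viability assay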
Description: SANGER: Inhibition of human TK10 cell growth in a cell viability assay.

JVM-3 = format: functional, cell-based;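 also: growth inhibition of human JVM-3 cells, read out with a cell viability assay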
Description: SANGER: Inhibition of human JVM-3 cell growth in a cell viability assay.

DMS-114 = format: functional, cell-based
NCI-H1299 = format: functional, cell-based;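 also: growth inhibition of human NCI-H1299 cells, read out by a cell viability assay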
Description: SANGER: Inhibition of human NCI-H1299 cell growth in a cell viability assay.

IA-LM = format: functional, cell-based;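 also: cell viability assay measuring growth inhibition of human IA-LM cells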
Description: SANGER: Inhibition of human IA-LM cell growth in a cell viability assay.

KP-N-YS = format: functional, cell-based;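 also: cell viability assay measuring inhibition of cell line growth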
Description: SANGER: Inhibition of human KP-N-YS cell growth in a cell viability assay.

GCIY = format: functional, cell-based;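 also: growth inhibition of the human GCIY cell line, read out by a cell viability assay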
Description: SANGER: Inhibition of human GCIY cell growth in a cell viability assay.

TE-11 = format: functional, cell-based;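 also: growth inhibition of human TE-11 cells, read out by a cell viability assay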
Description: SANGER: Inhibition of human TE-11 cell growth in a cell viability assay.

MV4-11 = format: functional, cell-based, MV-4-11;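 also: cell viability readout measuring growth inhibition of human MV-4-11 cells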
Description: SANGER: Inhibition of human MV-4-11 cell growth in a cell viability assay.

LU-139 = format: functional, cell-based
Description: SANGER: Inhibition of human LU-139 cell growth in a cell viability assay.

DEL = format: functional, cell-based;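 also: growth inhibition of the human DEL cell line, read out with a cell viability assay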
Description: SANGER: Inhibition of human DEL cell growth in a cell viability assay.

RXF 393 = format: functional, cell-based;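 also: growth inhibition of human RXF 393 cells, read out with a cell viability assay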
Description: SANGER: Inhibition of human RXF393 cell growth in a cell viability assay.

NCI-H82 = format: functional, cell-based;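 also: growth inhibition of NCI-H82 cells, measured with a cell viability readout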
Description: SANGER: Inhibition of human NCI-H82 cell growth in a cell viability assay.

ES3 = format: functional, cell-based;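 also: growth inhibition of ES3 cells, read out with a cell viability assay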
Description: SANGER: Inhibition of human ES3 cell growth in a cell viability assay.

MLMA = format: functional, cell-based;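 also: growth inhibition of MLMA cells (human), determined through a cell viability readout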
Description: SANGER: Inhibition of human MLMA cell growth in a cell viability assay.

SK-N-DZ = format: functional, cell-based;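 also: growth inhibition of the cancer cell line, read out through a viability assay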
Description: SANGER: Inhibition of human SK-N-DZ cell growth in a cell viability assay.

A3-KAW = format: functional, cell-based;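 also: growth inhibition of human A3-KAW cells, read out with a cell viability assay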
Description: SANGER: Inhibition of human A3-KAW cell growth in a cell viability assay.

L-363 = format: functional, cell-based
Description: SANGER: Inhibition of human L-363 cell growth in a cell viability assay.

NCI-H446 = format: functional, cell-based;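 also: growth inhibition of NCI-H446 cells determined by a cell viability assay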
Description: SANGER: Inhibition of human NCI-H446 cell growth in a cell viability assay.

SK-MEL-2 = format: functional, cell-based;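 also: growth inhibition of human SK-MEL-2 cells measured with a cell viability assay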
Description: SANGER: Inhibition of human SK-MEL-2 cell growth in a cell viability assay.

HC-1 = format: functional, cell-based;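 also: growth inhibition of HC-1 cells measured by a cell viability assay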
Description: SANGER: Inhibition of human HC-1 cell growth in a cell viability assay.

ES7 = format: functional, cell-based;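 also: growth inhibition of cultured human ES7 cells, read out as cell viability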
Description: SANGER: Inhibition of human ES7 cell growth in a cell viability assay.

IST-MEL1 = format: functional, cell-based;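 also: growth inhibition of the cell line, read out with a cell viability assay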
Description: SANGER: Inhibition of human IST-MEL1 cell growth in a cell viability assay.

SNU1 = format: functional, cell-based;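 also: growth inhibition of human NCI-SNU-1 cells, measured with a cell viability assay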
Description: SANGER: Inhibition of human NCI-SNU-1 cell growth in a cell viability assay.

NCI-H23 = format: functional, cell-based;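 also: cell viability assay measuring growth inhibition of NCI-H23 cells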
Description: SANGER: Inhibition of human NCI-H23 cell growth in a cell viability assay.

MHH-PREB-1 = format: functional, cell-based;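 also: cell viability assay measuring inhibition of proliferation of human MHH-PREB-1 cells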
Description: SANGER: Inhibition of human MHH-PREB-1 cell growth in a cell viability assay.

EM-2 = format: functional, cell-based;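 also: growth inhibition of EM-2 cells, read out with a cell viability assay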
Description: SANGER: Inhibition of human EM-2 cell growth in a cell viability assay.

ES8 = format: functional, cell-based;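 also: growth inhibition of human ES8 cells, read out with a cell viability assay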
Description: SANGER: Inhibition of human ES8 cell growth in a cell viability assay.

Becker = format: functional, cell-based;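 also: growth inhibition of Becker cells, read out with a cell viability assay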
Description: SANGER: Inhibition of human Becker cell growth in a cell viability assay.

NOS-1 = format: functional, cell-based;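 also: growth inhibition of the human NOS-1 cell line, read out with a cell viability assay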
Description: SANGER: Inhibition of human NOS-1 cell growth in a cell viability assay.

SF-126 = format: functional, cell-based;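 also: growth inhibition of human SF126 cells, read out with a cell viability assay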
Description: SANGER: Inhibition of human SF126 cell growth in a cell viability assay.

MZ1-PC = format: functional, cell-based;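 also: cell viability assay measuring growth inhibition of human MZ1-PC cells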
Description: SANGER: Inhibition of human MZ1-PC cell growth in a cell viability assay.

ES6 = format: functional, cell-based;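 also: growth inhibition of human ES6 cells, read out with a cell viability assay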
Description: SANGER: Inhibition of human ES6 cell growth in a cell viability assay.

PSN1 = format: functional, cell-based;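 also: suppression of growth of human PSN1 cells, read out by a cell viability assay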
Description: SANGER: Inhibition of human PSN1 cell growth in a cell viability assay.

NB13 = format: functional, cell-based;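 also: cell viability readout measuring growth inhibition of human NB13 cells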
Description: SANGER: Inhibition of human NB13 cell growth in a cell viability assay.

NB69 = format: functional, cell-based;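 also: growth inhibition of NB69 cells, determined by a cell viability assay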
Description: SANGER: Inhibition of human NB69 cell growth in a cell viability assay.

NB5 = format: functional, cell-based
Description: SANGER: Inhibition of human NB5 cell growth in a cell viability assay.

RPMI-8866 = format: functional, cell-based
Description: SANGER: Inhibition of human RPMI-8866 cell growth in a cell viability assay.

DJM-1 = format: functional, cell-based
Description: SANGER: Inhibition of human DJM-1 cell growth in a cell viability assay.

Calu-6 = format: functional, cell-based
Description: SANGER: Inhibition of human Calu-6 cell growth in a cell viability assay.

RCC10RGB = format: functional, cell-based
Description: SANGER: Inhibition of human RCC10RGB cell growth in a cell viability assay.

NCI-H1770 = format: functional, cell-based
Description: SANGER: Inhibition of human NCI-H1770 cell growth in a cell viability assay.

HDLM-2 = format: functional, cell-based
Description: SANGER: Inhibition of human HDLM-2 cell growth in a cell viability assay.

NCI-H2126 = format: functional, cell-based
Description: SANGER: Inhibition of human NCI-H2126 cell growth in a cell viability assay.

NCI-H747 = format: functional, cell-based
Description: SANGER: Inhibition of human NCI-H747 cell growth in a cell viability assay.

HCC1187 = format: functional, cell-based
Description: SANGER: Inhibition of human HCC1187 cell growth in a cell viability assay.

TE-12 = format: functional, cell-based
Description: SANGER: Inhibition of human TE-12 cell growth in a cell viability assay.

no-10 = format: functional, cell-based
Description: SANGER: Inhibition of human no-10 cell growth in a cell viability assay.

CC[C@@]1(O)C(=O)OCc2c1cc1n(c2=O)Cc2cc3ccccc3nc2-1 [CAMPTOTHECIN]
pIC50 (EW-24): 8.39
pIC50 (LAMA-84): 8.15
pIC50 (MS-1): 8.56
pIC50 (BB65-RCC): 8.73
pIC50 (SBC-1): 7.56
pIC50 (C8166): 7.38
pIC50 (NCI-H720): 7.35
pIC50 (HCC2218): 7.26
pIC50 (A388): 7.99
pIC50 (D-502MG): 7.65
pIC50 (A704): 7.81
pIC50 (GT3TKB): 8.75
pIC50 (KGN): 7.98
pIC50 (HEL): 8.20
pIC50 (ES4): 8.83
pIC50 (HOP-62): < 7.00
pIC50 (MZ7-mel): 8.06
pIC50 (MC116): 7.80
pIC50 (TK-10): 7.25
pIC50 (JVM-3): 8.60
pIC50 (DMS-114): 7.09
pIC50 (NCI-H1299): 8.03
pIC50 (IA-LM): 7.92
pIC50 (KP-N-YS): < 7.00
pIC50 (GCIY): 7.18
pIC50 (TE-11): 7.79
pIC50 (MV4-11): 9.15
pIC50 (LU-139): 7.78
pIC50 (DEL): 9.09
pIC50 (RXF 393): 8.33
pIC50 (NCI-H82): < 7.00
pIC50 (ES3): 9.03
pIC50 (MLMA): 8.09
pIC50 (SK-N-DZ): 7.66
pIC50 (A3-KAW): 8.78
pIC50 (L-363): 8.73
pIC50 (NCI-H446): 7.25
pIC50 (SK-MEL-2): 7.26
pIC50 (HC-1): 8.48
pIC50 (ES7): 10.59
pIC50 (IST-MEL1): 8.42
pIC50 (SNU1): 8.96
pIC50 (NCI-H23): 7.39
pIC50 (MHH-PREB-1): 8.56
pIC50 (EM-2): 8.39
pIC50 (ES8): 9.10
pIC50 (Becker): 7.63
pIC50 (NOS-1): 7.04
pIC50 (SF-126): 8.55
pIC50 (MZ1-PC): 7.69
pIC50 (ES6): 7.06
pIC50 (PSN1): 8.51
pIC50 (NB13): 7.54
pIC50 (NB69): 9.24
pIC50 (NB5): 8.72
pIC50 (RPMI-8866): 8.76

CCn1c(-c2nonc2N)nc2cnc(Oc3cccc(NC(=O)c4ccc(OCCN5CCOCC5)cc4)c3)cc21 [GSK-269962A]
pIC50 (EW-24): < 5.60
pIC50 (LAMA-84): < 5.60
pIC50 (MS-1): < 5.60
pIC50 (DJM-1): < 5.60
pIC50 (BB65-RCC): < 5.60
pIC50 (SBC-1): < 5.60
pIC50 (C8166): < 5.60
pIC50 (NCI-H720): 5.61
pIC50 (HCC2218): < 5.60
pIC50 (A388): < 5.60
pIC50 (D-502MG): < 5.60
pIC50 (GT3TKB): 5.79
pIC50 (KGN): 6.25
pIC50 (HEL): < 5.60
pIC50 (ES4): < 5.60
pIC50 (HOP-62): < 5.60
pIC50 (MZ7-mel): < 5.60
pIC50 (Calu-6): < 5.60
pIC50 (MC116): < 5.60
pIC50 (TK-10): < 5.60
pIC50 (JVM-3): < 5.60
pIC50 (DMS-114): < 5.60
pIC50 (NCI-H1299): < 5.60
pIC50 (RCC10RGB): < 5.60
pIC50 (KP-N-YS): < 5.60
pIC50 (GCIY): < 5.60
pIC50 (NCI-H1770): < 5.60
pIC50 (MV4-11): 6.86
pIC50 (HDLM-2): < 5.60
pIC50 (LU-139): < 5.60
pIC50 (DEL): < 5.60
pIC50 (RXF 393): 6.41
pIC50 (NCI-H82): < 5.60
pIC50 (ES3): < 5.60
pIC50 (NCI-H2126): < 5.60
pIC50 (NCI-H747): < 5.60
pIC50 (MLMA): < 5.60
pIC50 (SK-N-DZ): < 5.60
pIC50 (A3-KAW): < 5.60
pIC50 (L-363): < 5.60
pIC50 (NCI-H446): < 5.60
pIC50 (SK-MEL-2): < 5.60
pIC50 (HC-1): < 5.60
pIC50 (ES7): < 5.60
pIC50 (IST-MEL1): < 5.60
pIC50 (SNU1): < 5.60
pIC50 (NCI-H23): < 5.60
pIC50 (MHH-PREB-1): < 5.60
pIC50 (EM-2): 5.61
pIC50 (ES8): 6.09
pIC50 (Becker): < 5.60
pIC50 (NOS-1): < 5.60
pIC50 (SF-126): < 5.60
pIC50 (MZ1-PC): < 5.60
pIC50 (HCC1187): < 5.60
pIC50 (ES6): 6.61
pIC50 (PSN1): < 5.60
pIC50 (NB13): 5.64
pIC50 (NB69): < 5.60
pIC50 (NB5): < 5.60
pIC50 (TE-12): < 5.60
pIC50 (no-10): 6.17
pIC50 (RPMI-8866): < 5.60
